Laboratory results published in patent publication US10246429B2, “Vinyl fluoride cyclopropyl fused thiazin-2-amine compounds as beta-secretase inhibitors and methods of use” (AMGEN INC., priority 2015, dated 2019).

Assays:
BACE2 = BACE2 (Homo sapiens (Human), UniProt Q9Y5Z0); experiment: In vitro enzymatic BACE2 FRET assay; format: biochemical; details: read-out: IC50 IP (μM) BACE2 Enzyme
Excerpt: In Vitro Enzymatic BACE1 and BACE2 FRET (Fluorescence Resonance Energy Transfer) Assays (Enzyme Assay Data in Table 1)

Cathepsin D (CatD) = Cathepsin D (CatD) (Homo sapiens (Human), UniProt P07339); experiment: CatD assay; format: biochemical; details: read-out: IC50 IP (μM) CatD
Chain of Cathepsin D (CatD) (P07339 65-412, species assumed): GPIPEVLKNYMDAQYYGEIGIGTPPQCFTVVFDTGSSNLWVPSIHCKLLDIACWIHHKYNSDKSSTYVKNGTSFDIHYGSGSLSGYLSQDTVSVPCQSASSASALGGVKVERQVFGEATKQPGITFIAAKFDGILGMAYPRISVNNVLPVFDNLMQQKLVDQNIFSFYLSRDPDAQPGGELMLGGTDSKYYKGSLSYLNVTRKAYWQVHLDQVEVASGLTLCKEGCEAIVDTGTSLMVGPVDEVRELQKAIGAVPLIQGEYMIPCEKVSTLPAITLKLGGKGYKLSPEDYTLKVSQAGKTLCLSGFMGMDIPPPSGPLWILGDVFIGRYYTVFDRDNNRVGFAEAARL

Chain of BACE2 (Q9Y5Z0 63-518): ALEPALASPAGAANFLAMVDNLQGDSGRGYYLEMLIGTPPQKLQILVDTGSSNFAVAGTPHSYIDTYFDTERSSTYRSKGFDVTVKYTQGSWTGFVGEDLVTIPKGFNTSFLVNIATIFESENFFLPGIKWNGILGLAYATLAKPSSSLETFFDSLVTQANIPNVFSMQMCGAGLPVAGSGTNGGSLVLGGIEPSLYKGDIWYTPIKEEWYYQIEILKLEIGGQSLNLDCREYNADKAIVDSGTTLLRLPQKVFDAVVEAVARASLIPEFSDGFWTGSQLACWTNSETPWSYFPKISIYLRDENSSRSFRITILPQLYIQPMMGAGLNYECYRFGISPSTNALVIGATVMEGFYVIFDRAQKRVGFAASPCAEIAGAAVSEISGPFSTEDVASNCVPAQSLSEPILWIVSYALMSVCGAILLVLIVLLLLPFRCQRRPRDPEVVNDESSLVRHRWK

Structure (SMILES)	IC50 (BACE2)	IC50 (Cathepsin D (CatD))
C#CCOc1cnc(/C(F)=C/c2cnc(F)c([C@@]3(C)N=C(N)S[C@@]4(C(=O)O)C[C@H]43)c2)cn1 [Example 285, (1S,5S,6S)-3-amino-5-(2-fluoro-5-((Z)-2-fluoro-2-(5-(prop-2-yn-1-yloxy)pyrazin-2-yl)vinyl)pyridin-3-yl)-5-methyl-2-thia-4-azabicyclo[4.1.0]hept-3-ene-1-carboxylic acid]	6.35 µM	316 µM
COC[C@]12C[C@H]1[C@@](C)(c1cc(/C=C(\F)c3cnc(OCC4CCO4)cn3)ccc1F)N=C(N)S2 (stereo partly drawn) [Example 273]	5.11 µM	647 µM
C[C@]1(O)CCN(C(=O)[C@]23C[C@H]2[C@@](C)(c2cc(/C=C(\F)c4ccc(C#N)cn4)ccc2F)N=C(N)S3)C1 [Example 309, 6-((Z)-2-(3-((1S,5S,6S)-3-amino-1-((S)-3-hydroxy-3-methylpyrrolidine-1-carbonyl)-5-methyl-2-thia-4-azabicyclo[4.1.0]hept-3-en-5-yl)-4-fluorophenyl)-1-fluorovinyl)nicotinonitrile]	0.007 µM	401 µM
COC[C@]12C[C@H]1[C@@](C)(c1cc(/C=C(\F)c3cnc(OCCC(F)(F)F)cn3)ccc1F)N=C(N)S2 [Example 268]	1.55 µM	245 µM
CN(C)C(=O)[C@]12C[C@H]1[C@@](C)(c1cc(/C=C(\F)c3cnc(OCC(F)(F)F)cn3)ccc1F)N=C(N)S2 [Example 155, (1S,5S,6S)-3-amino-5-(2-fluoro-5-((Z)-2-fluoro-2-(5-(2,2,2-trifluoroethoxy)pyrazin-2-yl)vinyl)phenyl)-N,N,5-trimethyl-2-thia-4-azabicyclo[4.1.0]hept-3-ene-1-carboxamide]	0.0823 µM	167 µM
CN(C)C(=O)[C@]12C[C@H]1[C@@](C)(c1cc(/C=C(\F)c3ccc(C#N)nc3)ccc1F)N=C(N)S2 [Example 171, (1S,5S,6S)-3-amino-5-(5-((Z)-2-(6-cyanopyridin-3-yl)-2-fluorovinyl)-2-fluorophenyl)-N,N,5-trimethyl-2-thia-4-azabicyclo[4.1.0]hept-3-ene-1-carboxamide]	0.642 µM	824 µM
C[C@]1(c2cc(/C=C(\F)c3ccc(C#N)cn3)ccc2F)N=C(N)S[C@@]2(C(=O)N3CCNC(=O)C3)C[C@H]21 [Example 144, 6-((Z)-2-(3-((1S,5S,6S)-3-amino-5-methyl-1-(3-oxopiperazine-1-carbonyl)-2-thia-4-azabicyclo[4.1.0]hept-3-en-5-yl)-4-fluorophenyl)-1-fluorovinyl)nicotinonitrile]	0.0282 µM	400 µM
CC(=O)COc1cnc(/C(F)=C/c2cnc(F)c([C@@]3(C)N=C(N)S[C@@]4(C(=O)N(C)C)C[C@H]43)c2)cn1 [Example 288, (1S,5S,6S)-3-amino-5-(2-fluoro-5-((Z)-2-fluoro-2-(5-(2-oxopropoxy)pyrazin-2-yl)vinyl)pyridin-3-yl)-N,N,5-trimethyl-2-thia-4-azabicyclo[4.1.0]hept-3-ene-1-carboxamide]	0.294 µM	175 µM
COC(=O)[C@@]12SC(N)=N[C@](C)(c3cc(/C=C(\F)c4ccc(C#N)cn4)ccc3F)[C@@H]1C2(F)F [Example 256, (1S,5S,6R)-methyl 3-amino-5-(5-((Z)-2-(5-cyanopyridin-2-yl)-2-fluorovinyl)-2-fluorophenyl)-7,7-difluoro-5-methyl-2-thia-4-azabicyclo[4.1.0]hept-3-ene-1-carboxylate]	0.252 µM	760 µM
COC[C@]12C[C@H]1[C@@](C)(c1cc(/C=C(\F)c3cnc(OC[C@H](C)OC)cn3)ccc1F)N=C(N)S2 [Example 265]	3.86 µM	1320 µM
C[C@]1(c2cc(/C=C(\F)c3ccc(C#N)cn3)ccc2F)N=C(N)S[C@@]2(C(=O)N3CCCC(c4ccccc4)C3)C[C@H]21 (stereo partly drawn) [Example 140, 6-((Z)-2-(3-((1S,5S,6S)-3-amino-5-methyl-1-(3-phenylpiperidine-1-carbonyl)-2-thia-4-azabicyclo[4.1.0]hept-3-en-5-yl)-4-fluorophenyl)-1-fluorovinyl)nicotinonitrile]	0.0131 µM	12.8 µM
C[C@]1(c2cc(/C=C(\F)c3ccc(C#N)cn3)ccc2F)N=C(N)S[C@@]2(C(=O)N3CC4CC3CO4)C[C@H]21 (stereo partly drawn) [Example 132, 6-((Z)-2-(3-((1S,5S,6S)-3-amino-1-(2-oxa-5-azabicyclo[2.2.1]heptane-5-carbonyl)-5-methyl-2-thia-4-azabicyclo[4.1.0]hept-3-en-5-yl)-4-fluorophenyl)-1-fluorovinyl)nicotinonitrile]	0.0758 µM	1690 µM
COC[C@]12C[C@H]1[C@@](C)(c1cc(/C=C(\F)c3cnc(Cl)cn3)ccc1F)N=C(N)S2 [Example 261, (1S,5S,6S)-5-(5-((Z)-2-(5-chloropyrazin-2-yl)-2-fluorovinyl)-2-fluorophenyl)-1-(methoxymethyl)-5-methyl-2-thia-4-azabicyclo[4.1.0]hept-3-en-3-amine]	0.08 µM	357 µM
CN(C)C(=O)[C@]12C[C@H]1[C@@](C)(c1cc(/C=C\F)ccc1F)N=C(N)S2 [Example 208, (1S,5S,6S)-3-amino-5-(2-fluoro-5-((Z)-2-fluorovinyl)phenyl)-N,N,5-trimethyl-2-thia-4-azabicyclo[4.1.0]hept-3-ene-1-carboxamide]	0.117 µM	9.28 µM
C[C@@]1(O)CCN(C(=O)[C@]23C[C@H]2[C@@](C)(c2cc(/C=C(\F)c4ccc(C#N)cn4)ccc2F)N=C(N)S3)C1 (single isomer, unassigned) [Example 310]	0.041 µM	434 µM
C[C@]1(c2cc(/C=C(\F)c3ccc(Cl)cn3)ccc2F)N=C(N)S[C@@]2(C(=O)N3CCC3)C[C@H]21 [Example 112, ((1S,5S,6S)-3-amino-5-(5-((Z)-2-(5-chloropyridin-2-yl)-2-fluorovinyl)-2-fluorophenyl)-5-methyl-2-thia-4-azabicyclo[4.1.0]hept-3-en-1-yl)(azetidin-1-yl)methanone]	–	97.6 µM
C#CCOc1cnc(/C(F)=C/c2ccc(F)c([C@@]3(C)N=C(N)S[C@@]4(COC)C[C@H]43)c2)cn1 [Example 262, (1S,5S,6S)-5-(2-fluoro-5-((Z)-2-fluoro-2-(5-(prop-2-yn-1-yloxy)pyrazin-2-yl)vinyl)phenyl)-1-(methoxymethyl)-5-methyl-2-thia-4-azabicyclo[4.1.0]hept-3-en-3-amine]	0.694 µM	317 µM
CN(C)C(=O)[C@]12C[C@H]1[C@@](C)(c1cc(/C=C(\F)c3ccc(C#N)nn3)ccc1F)N=C(N)S2 [Example 174, (1S,5S,6S)-3-amino-5-(5-((Z)-2-(6-cyanopyridazin-3-yl)-2-fluorovinyl)-2-fluorophenyl)-N,N,5-trimethyl-2-thia-4-azabicyclo[4.1.0]hept-3-ene-1-carboxamide]	0.406 µM	280 µM
C#CCOc1cnc(/C(F)=C/c2ccc(F)c([C@@]3(C)N=C(N)S[C@@]4(C(=O)N(C)C)C[C@H]43)c2)cn1 [Example 153, (1S,5S,6S)-3-amino-5-(2-fluoro-5-((Z)-2-fluoro-2-(5-(prop-2-yn-1-yloxy)pyrazin-2-yl)vinyl)phenyl)-N,N,5-trimethyl-2-thia-4-azabicyclo[4.1.0]hept-3-ene-1-carboxamide]	0.0518 µM	106 µM
CN(C)C(=O)[C@]12C[C@H]1[C@@](C)(c1cc(/C=C(\F)c3ccc(Cl)cn3)cnc1F)N=C(N)S2 [Example 178, (1S,5S,6S)-3-amino-5-(5-((Z)-2-(5-chloropyridin-2-yl)-2-fluorovinyl)-2-fluoropyridin-3-yl)-N,N,5-trimethyl-2-thia-4-azabicyclo[4.1.0]hept-3-ene-1-carboxamide]	0.00574 µM	609 µM
COC(=O)[C@]12C[C@H]1[C@@](C)(c1cc(/C=C(\F)c3cnc(Br)cn3)ccc1F)N=C(N)S2 [Example 148, (1S,5S,6S)-methyl 3-amino-5-(5-((Z)-2-(5-bromopyrazin-2-yl)-2-fluorovinyl)-2-fluorophenyl)-5-methyl-2-thia-4-azabicyclo[4.1.0]hept-3-ene-1-carboxylate]	1.03 µM	231 µM
C[C@]1(c2cc(/C=C(\F)c3ccc(Cl)cn3)ccc2F)N=C(N)S[C@@]2(CO)C[C@H]21 [Example 113, ((1S,5S,6S)-3-amino-5-(5-((Z)-2-(5-chloropyridin-2-yl)-2-fluorovinyl)-2-fluorophenyl)-5-methyl-2-thia-4-azabicyclo[4.1.0]hept-3-en-1-yl)methanol]	0.0339 µM	400 µM
C[C@]1(c2cc(/C=C(\F)c3ccc(C#N)cn3)ccc2F)N=C(N)S[C@@]2(C(=O)N3CC[C@@H]4CCCC[C@H]4C3)C[C@H]21 [Example 135, 6-((Z)-2-(3-((1S,5S,6S)-3-amino-1-((4aS,8aR)-decahydroisoquinoline-2-carbonyl)-5-methyl-2-thia-4-azabicyclo[4.1.0]hept-3-en-5-yl)-4-fluorophenyl)-1-fluorovinyl)nicotinonitrile]	0.00166 µM	5.5 µM
C#Cc1cnc(/C(F)=C/c2ccc(F)c([C@@]3(C)N=C(N)S[C@@]4(C(=O)NC)C[C@H]43)c2)cn1 [Example 167, (1S,5S,6S)-3-amino-5-(5-((Z)-2-(5-ethynylpyrazin-2-yl)-2-fluorovinyl)-2-fluorophenyl)-N,5-dimethyl-2-thia-4-azabicyclo[4.1.0]hept-3-ene-1-carboxamide]	0.16 µM	–
CC(O)CCNC(=O)[C@]12C[C@H]1[C@@](C)(c1cc(/C=C(\F)c3ccc(Cl)cn3)ccc1F)N=C(N)S2 (stereo partly drawn) [Example 115, (1S,5S,6S)-3-amino-5-(5-((Z)-2-(5-chloropyridin-2-yl)-2-fluorovinyl)-2-fluorophenyl)-N-(3-hydroxybutyl)-5-methyl-2-thia-4-azabicyclo[4.1.0]hept-3-ene-1-carboxamide]	–	57.6 µM
CNC(=O)[C@]12C[C@H]1[C@@](C)(c1cc(/C=C(\F)c3cnc(OCC(F)(F)C(F)F)cn3)ccc1F)N=C(N)S2 [Example 161, (1S,5S,6S)-3-amino-5-(2-fluoro-5-((Z)-2-fluoro-2-(5-(2,2,3,3-tetrafluoropropoxy)pyrazin-2-yl)vinyl)phenyl)-N,5-dimethyl-2-thia-4-azabicyclo[4.1.0]hept-3-ene-1-carboxamide]	0.755 µM	–
